Measurements as given in patent US20100041089A1, “IMPROVED METHOD FOR DETECTING CHEMICAL […]” (priority 2006, published 2010).

Tested on: promoter of yeast gene YKL071w
Assay: Dissolved oxygen measurement with oxygen electrode using yeast transformed with YKL071w promoter linked to oxidase (pyridoxamine phosphate substrate)
Format: cell-based, Saccharomyces cerevisiae W303
Conditions: sample solutions A, B, C with 0.0053, 0.053, 0.53 ppm versus standard solution S; FIG. 4
Description: Primers for PCR to amplify the polynucleotide comprising the promoter of yeast gene YKL071w were prepared. Primers were designed using a primer design software, Oligo4.0-S, Sequencher I Mackintosh version. The base sequence of the upper primer was:
For PCR, yeast chromosome (Saccharomyces cerevisiae S288C, Cat.40802, Research Genetics, Inc.) was used as template, and the commercially available kit (KOD DNA Polymerase; Code KOD-101, Toyobo) was used as reagents. […]
The yeast in a steady state is diluted 500 times with the SD medium, and it is shake cultured at 25° C. for 15 hours. After confirming the logarithmic growth phase at which absorbance at 600 nm is within 0.2 to 0.5, different concentrations of TPN is loaded. […]
By comparing a temporal change in a measured current value for the sample solution A, B or C and a temporal change in a measured current value for the standard solution S, an amount of pyridoxamine phosphate oxidase produced by stimulation of the chemical substance (TPN) in respective solutions for measurement may be determined and, thereby, existence or a quantity of the chemical substance may be detected.

Which “Temporal change in current value for dissolved oxygen measurement” value does the source give for `N#Cc1c(Cl)c(Cl)c(Cl)c(C#N)c1Cl` [(9), 2,4,5,6-Tetrachloro-1,3-benzenedicarbonitrile] here?
The value was “as the concentration of the chemical substance (TPN) becomes larger, a decreasing rate of a current value at an initial stage becomes larger and a steady state value after reaching a plateau becomes lower”.
